Data: PubChem BioAssay (NCI)
Where “and” joins values, the source holds several entries; their conditions need not be identical. Equal values may be shown once.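 Five compound concentrations were applied to cells in 96-well plates for 48 hours; endpoints were derived by simple linear interpolation of the resulting dose-response curve. GI50: concentration for 50% inhibition of growth. TGI marks complete inhibition of growth.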 *1 amine or outer side, *2 acyl side, *3 side chain or, on linkers, in order; H or OH if unused. Where a SMILES comes first, the peptide text is derived from it. Bridges are numbered along the chain shown (N, C = ends). Roman numbers before positions name the chains, in order. [ ]: non-standard residue; d: D form. Actinocin(9to1) = Cc1c2oc3c(C)ccc(C(=O)[*:1])c3nc-2c(C(=O)[*:2])c(N)c1=O; NMeT = CN[CH](C(=O)O)[CH](C)O; Sar = CNCC(=O)O

Columns and labels:
Assay in all cases: growth of human tumour cells (NCI), 48 h
BT-549 breast = tested on: BT-549 breast
T-47D breast = tested on: T-47D breast
XF 498 CNS = tested on: XF 498 CNS
KM20L2 colon = tested on: KM20L2 colon
DMS 273 small cell lung = tested on: DMS 273 small cell lung
DMS 114 small cell lung = tested on: DMS 114 small cell lung
DLD-1 colon = tested on: DLD-1 colon
MDA-N = tested on: MDA-N
RXF-631 renal = tested on: RXF-631 renal

Structure (SMILES) | GI50 (BT-549 breast) | TGI (BT-549 breast) | GI50 (T-47D breast) | TGI (T-47D breast) | further results
COC(=O)c1cc2c3ccccc3n3c(=O)c4cc5ccccc5nc4c(n1)c23 | > 100 µM | > 100 µM | > 100 µM | > 100 µM | –
CCCN(CCC)c1ccc(/C=C/c2ccc3cc(OCC)ccc3n2)cc1 | > 100 µM | > 100 µM | 15.9 µM | > 100 µM | –
N#Cc1ccc2c(c1)C(=O)c1c-2n(CCCCl)c(=O)c2cc([N+](=O)[O-])ccc12 | 2.28 µM | 23.5 µM | 2.65 µM | > 100 µM | –
COc1cc(N2CCC(N3CCN(C)CC3)CC2)ccc1Nc1ncnc(Nc2ccccc2S(=O)(=O)C(C)C)n1 | 18.4 µM | 44.7 µM | 5.18 µM | 39.9 µM | –
CCOC(=O)Cc1ccc2c(c1O)C(=O)c1c(ccc(CC(=O)OCC)c1O)C2=O | – | – | – | – | TGI (XF 498 CNS): > 100 µM; TGI (KM20L2 colon): > 100 µM; TGI (DMS 273 small cell lung): > 100 µM; TGI (DMS 114 small cell lung): > 100 µM; TGI (DLD-1 colon): > 100 µM
C[C@@H](O)[C@H](NC(=O)N[C@@H](CC(N)=O)c1nc([C@@H](N)CO)no1)C(=O)O | > 100 µM | > 100 µM | > 100 µM | > 100 µM | –
Cc1ccc(NC2=C(Cl)C(=O)N(Cc3ccc(Cl)cc3)C2=O)cc1O | – | – | 10.7 µM | 42.6 µM | –
Cc1cc(-c2nc3sccn3c2/C=N/N=C(N)N)c(C)s1 | 18.5 µM | 33.3 µM | 17.5 µM | 32.8 µM | –
CC(=Nc1ccccc1)C1=C(O)C(Cc2ccc(O)cc2)NC1=O (centres undefined) | 0.0577 µM | 1.12 µM | – | – | –
C=C1C(=O)O[C@H]2[C@H]1CC/C(COC(=O)c1cc3ccccc3o1)=C\CC[C@@]1(C)O[C@@H]21 | 1.48 µM | 3.29 µM | 1.35 µM | 3.32 µM | –
COc1ccc(-c2oc(=O)ccc2-c2cc(OC)c(OC)c(OC)c2)cc1O | 1.52 µM | > 38.5 µM | 0.553 µM | > 100 µM | –
Nc1c2c(c(O)c3c1=C(CO)C=N3)=NCCS2 | 0.175 µM | 0.317 µM | 0.224 µM | 0.484 µM | –
O=C(O)c1ccc(Oc2nccc(-c3c(-c4ccc(F)cc4)ncn3C3CCNCC3)n2)cc1 | > 25 µM | > 25 µM | > 25 µM | > 25 µM | –
Cc1cc(=O)oc2c(C)c(O)ccc12 | – | > 100 µM | – | > 100 µM | TGI (MDA-N): > 100 µM
N#CC1=C(N)Oc2c(ccc3ccccc23)C1c1ccccc1 (centres undefined) | 0.0821 µM | 3.4 µM | – | – | –
O=C(c1ccccc1)c1c(-c2ccccc2)sc2nc3ccccc3nc12 | – | – | – | – | TGI (XF 498 CNS): > 100 µM; TGI (KM20L2 colon): > 100 µM; TGI (DMS 273 small cell lung): > 100 µM; TGI (DMS 114 small cell lung): > 100 µM

Structure (SMILES) | GI50 (BT-549 breast) | TGI (BT-549 breast) | GI50 (T-47D breast) | TGI (T-47D breast) | further results
CC(=O)N1C/C(=C/c2ccc(Cl)cc2)C(=O)/C(=C/c2ccc(Cl)cc2)C1 | 0.435 µM | 1.32 µM | 1.31 µM | 3.24 µM | –
CCOC(=O)NC1C2CC(=O)OC(O2)C1OC(C)=O (centres undefined) | > 100 µM | > 100 µM | > 100 µM | > 100 µM | TGI (RXF-631 renal): > 100 µM; TGI (KM20L2 colon): > 100 µM; TGI (DMS 273 small cell lung): > 100 µM; TGI (DLD-1 colon): > 100 µM
C=C1C(=O)OC2C1CCC(C)C1C=CC(=O)C12C (centres undefined) | – | 3.46 µM | – | 4.88 µM | TGI (XF 498 CNS): 13.4 µM; TGI (KM20L2 colon): 14.6 µM; TGI (DMS 273 small cell lung): 23.5 µM; TGI (DLD-1 colon): 4.19 µM; TGI (MDA-N): 3.88 µM
COC(=O)CC[C@]1(C)O[C@H]2[C@H]([C@@H](C)CCCC(C)=O)OC(=O)[C@@H]2C[C@H]1O | > 100 µM | > 100 µM | – | – | –
COc1ccc2c3c([nH]c2c1[N+](=O)[O-])C(C)N(Cc1ccc([N+](=O)[O-])cc1)CC3 (centres undefined) | – | – | – | – | TGI (KM20L2 colon): 45 µM; TGI (DMS 273 small cell lung): 27.8 µM
O=S(=O)(NCCCNc1nccc(-c2c(-c3ccc(F)c(O)c3)nc3sccn23)n1)c1ccc(F)cc1 | 1.84 µM | 7.14 µM | 2.24 µM | 6.21 µM | –
Cc1c2oc3c(C)ccc(C(=O)NC4C(=O)NC(C(C)C)C(=O)N5CCCC5C(=O)N(C)CC(=O)N(C)C(C(C)O)C(=O)OC4C)c3nc-2c(C(=O)NC2C(=O)NC(C(C)C)C(=O)N3CCCC3C(=O)N(C)CC(=O)N(C)C(C(C)O)C(=O)OC2C)c(N)c1=O (centres undefined) (I: TVP[Sar][NMeT] / II: TVP[Sar][NMeT]; ester I:1-I:C, II:1-II:C; linker I:N-II:N via Actinocin(9to1); configuration not given here) | – | – | 2.67 µM and > 1 µM | > 100 µM | TGI (MDA-N): 16.9 µM and > 1 µM
CNC/C(Cl)=N/S(=O)(=O)c1ccc(C)cc1 | – | 51.7 µM | – | – | TGI (MDA-N): 29.5 µM
NC[C@H]1Nc2ccccc2[C@@H](O)C1O (some centres undefined) | – | – | – | > 100 µM | TGI (MDA-N): > 100 µM
COc1ccc(NC([Se])=NC23CC4CC(CC(C4)C2)C3)cc1 | 0.874 µM | 2.32 µM | 1.88 µM | 4.89 µM | –
C=C1C(C2(C)C(OC(C)=O)CC(=O)OC(C)(COC(C)=O)C2CC(=O)OC)C(OC=O)C(OC(=O)C(O)C(C)CC)C2(C)C(c3ccoc3)CC(=O)C12O (centres undefined) | – | > 30.5 µM | – | > 100 µM | TGI (MDA-N): > 100 µM
c1cc(N2CCCN(c3ccc(C4=NCCCN4)cc3)CC2)ccc1C1=NCCCN1 | > 100 µM | > 100 µM | > 100 µM | > 100 µM | –
Cc1cc(O)cc2c1[C@]1(C)CCC3C(C)(C)CCC[C@]3(C)[C@H]1C2 (some centres undefined) | 21.6 µM | 38.6 µM | 16.7 µM | 43.3 µM | –
C=C(NC(=O)C(=C)NC(=O)c1csc(C2=NC3c4csc(n4)C4NC(=O)c5csc(n5)C(C(C)(O)C(C)O)NC(=O)C5CSC(=N5)C(=CC)NC(=O)C(C(C)O)NC(=O)c5csc(n5)C3(CC2)NC(=O)C(C)NC(=O)C(=C)NC(=O)C(C)NC(=O)C(C(C)CC)NC2C=Cc3c(C(C)O)cc(nc3C2O)C(=O)OC4C)n1)C(N)=O (centres undefined) | 2.1 µM | 4.71 µM | 4.41 µM | 80.7 µM | –
O=c1cc(N2CCN(CCCCCOc3cc(O)c4c(=O)cc(-c5ccccc5)oc4c3)CC2)c2ccccc2o1 | 57.9 µM | > 100 µM | > 100 µM | > 100 µM | –
C[C@]12CC[C@@H]3c4cc(-c5ccc(F)cc5)c(O)cc4CC[C@H]3[C@@H]1CC[C@@H]2O | 6.51 µM | 23.3 µM | 4.52 µM | 24.6 µM | –
